Patent publication US20230279025A1, “KRAS G12D INHIBITORS” (Mirati Therapeutics, Inc., priority 2020, published 2023)

Legend:
KRas G12D [1] = biological target: T1, KRas G12D (Homo sapiens (Human), UniProt P01116, G12D); assay: KRas G12D Binding Assay (TR-FRET displacement of Cy5 labelled tracer); conditions: GDP-loaded KRAS G12D (amino acids 1:169), 60 minute incubation at 22° C.
Protocol: After a 60 minute incubation at 22° C., the reaction was measured using a PerkinElmer EnVision multimode plate reader via TR-FRET dual wavelength detection, and the percent of control (POC) calculated using a ratiometric emission factor. […] The POC values were fit to a 4-parameter logistic curve and the IC50 value was determined as the concentration where the curve crosses 50 POC.
ND stands for “not determined.”
Target sequence in this assay (P01116 other isoform, or with tags, fused parts or gaps G12D): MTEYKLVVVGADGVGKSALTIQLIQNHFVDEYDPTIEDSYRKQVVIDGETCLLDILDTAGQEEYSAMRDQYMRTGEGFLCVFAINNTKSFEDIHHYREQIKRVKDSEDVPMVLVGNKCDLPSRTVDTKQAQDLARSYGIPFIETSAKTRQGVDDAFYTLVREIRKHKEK

KRas G12D [2] = biological target: T1, KRas G12D; assay: KRas G12D Surface Plasmon Resonance (SPR) Binding Assay; conditions: Biacore T200, immobilized biotinylated KRAS protein, 1:1 binding model
Protocol: Briefly, 1L of 1.05X HBS-Mg buffer (262.5 mM Bioultra Hepes, pH 7.5, 157.5 mM NaCl, 105 mM MgCl2, 0.525 mM TCEP, 0.0305% Brij-35) was prepared and filter sterilized using a 0.22 μm bottle top filter. Approximately 50 mL of 1.05X HBS-Mg buffer was removed and saved for future dilutions. A 50 mL aliquot of DMSO (Sigma Aldrich DMSO Lot. #SHBK2079) was added and continued to stir for 10 minutes, creating the final 1.0X HBS-Mg buffer (250 mM Bioultra Hepes pH 7.5, 150 mM NaCl, 100 mM MgCl2, 0.5 mM TCEP, 0.03% Brij-35).
Biacore T200 instrument was primed using 1.0X HBS-Mg buffer before docking a GE Streptavidin (SA) chip and then primed two additional times prior to beginning the immobilization step. All immobilized protein mixtures were created using 3-5 mg/mL Biotinylated Avidin-tagged KRAS protein using the following immobilization settings: SA chip type, 1 flow cells per cycle, 720 second contact time, and 5 ul/min flow rate. Normalization of the detector was also performed during the immobilization step using the GE BiaNormalize solution.
All compounds were diluted to 10 mM in 100% DMSO prior to being diluted 20X in 1.05X buffer. Another 10X dilution was created using 1.0X buffer prior to performing a series of 3X dilutions to create a compound concentration curve using the following assay settings: 20C analysis temperature, General Settings=10 Hz data collection rate and multi-detection; Assay Steps=all set to LMW kinetics; Cycle Types=LMW kinetics (60 s contact time, 120 s dissociation time, 100 ul/min flow rate, extra wash after injection with 50% DMSO, flow path 1,2,3,4); Flow path detection=2-1, 4-3). Data evaluation was performed using the Biacore T200 Evaluation software and data fit to 1:1 binding model. ND=not determined.
Target sequence in this assay (P01116-2 other isoform, or with tags, fused parts or gaps G12D): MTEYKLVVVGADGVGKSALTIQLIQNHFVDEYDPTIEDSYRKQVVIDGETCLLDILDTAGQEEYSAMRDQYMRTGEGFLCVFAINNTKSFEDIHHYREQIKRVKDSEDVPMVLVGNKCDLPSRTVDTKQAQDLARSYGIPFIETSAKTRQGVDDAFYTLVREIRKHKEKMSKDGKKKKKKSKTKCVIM

Row | Compound | IC50 (KRas G12D [1]) [µM] | Kd (KRas G12D [2]) [µM]
1 | CCO[C@@H]1C[C@@H](COc2nc(N3C[C@H]4CC[C@@H](C3)N4)c3cnc(-c4cccc5cccc(Cl)c45)c(F)c3n2)N(C)C1 [Example 43, 4-((1R,5S)-3,8-diazabicyclo[3.2.1]octan-3-yl)-7-(8-chloronaphthalen-1-yl)-2-(((2S,4R)-4-ethoxy-1-methylpyrrolidin-2-yl)methoxy)-8-fluoropyrido[4,3-d]pyrimidine] | 0.0722 | 0.188
2 | Oc1cc(-c2ncc3c(N4C[C@H]5CC[C@@H](C4)N5)nc(OCCc4ccccn4)nc3c2F)c2ccccc2c1 [Example 4, 4-(4-((1R,5S)-3,8-diazabicyclo[3.2.1]octan-3-yl)-8-fluoro-2-(2-(pyridin-2-yl)ethoxy)pyrido[4,3-d]pyrimidin-7-yl)naphthalen-2-ol] | 0.496 | 0.156
3 | CC1CCc2cccc(-c3ncc4c(N5CC6CCC(C5)N6)nc(OC[C@@H]5CCCN5C)nc4c3F)c21 (stereo partly drawn) [Example 174, 4-((1R,5S)-3,8-diazabicyclo[3.2.1]octan-3-yl)-8-fluoro-7-(3-methyl-2,3-dihydro-1H-inden-4-yl)-2-(((S)-1-methylpyrrolidin-2-yl)methoxy)pyrido[4,3-d]pyrimidine] | 0.0639 | 0.186
4 | OCC(O)CCOc1nc(N2C[C@H]3CC[C@@H](C2)N3)c2cnc(-c3cccc4cccc(Cl)c34)c(F)c2n1 (stereo partly drawn) [Example 57, 4-((4-((1R,5S)-3,8-diazabicyclo[3.2.1]octan-3-yl)-7-(8-chloronaphthalen-1-yl)-8-fluoropyrido[4,3-d]pyrimidin-2-yl)oxy)butane-1,2-diol] | 7.29 | > 1000
5 | Cc1cccc2cccc(-c3ncc4c(N5C[C@H]6CC[C@@H](C5)N6)nc(OCCc5cccnc5)nc4c3F)c12 [Example 101, 4-((1R,5S)-3,8-diazabicyclo[3.2.1]octan-3-yl)-8-fluoro-7-(8-methylnaphthalen-1-yl)-2-(2-(pyridin-3-yl)ethoxy)pyrido[4,3-d]pyrimidine] | 8.08 | 12
6 | CN1CCC[C@H]1COc1nc(N2C[C@H]3CC[C@@H](C2)N3)c2cnc(-c3cccc4c3C(C)(C)CC4)c(F)c2n1 [Example 161, 4-((1R,5S)-3,8-diazabicyclo[3.2.1]octan-3-yl)-7-(3,3-dimethyl-2,3-dihydro-1H-inden-4-yl)-8-fluoro-2-(((S)-1-methylpyrrolidin-2-yl)methoxy)pyrido[4,3-d]pyrimidine bis(2,2,2-trifluoroacetate)] | 0.273 | 0.403
7 | Cc1c(-c2cc(O)cc3ccccc23)ncc2c(N3C[C@H]4CC[C@@H](C3)N4)nc(OC[C@@H]3CCCN3C)nc12 [Example 190, 4-(4-((1R,5S)-3,8-diazabicyclo[3.2.1]octan-3-yl)-8-methyl-2-(((S)-1-methylpyrrolidin-2-yl)methoxy)pyrido[4,3-d]pyrimidin-7-yl)naphthalen-2-ol] | 0.0641 | 0.0761
8 | Oc1cc(-c2ncc3c(N4C[C@H]5CC[C@@H](C4)N5)nc(OCCN4CCOCC4)nc3c2F)c2ccccc2c1 [Example 25, 4-(4-((1R,5S)-3,8-diazabicyclo[3.2.1]octan-3-yl)-8-fluoro-2-(2-morpholinoethoxy)pyrido[4,3-d]pyrimidin-7-yl)naphthalen-2-ol] | 0.338 | 0.27
9 | CN(C)C1(C)CN(c2nc(N3C[C@H]4CC[C@@H](C3)N4)c3cnc(-c4cccc5cccc(Cl)c45)c(F)c3n2)C1 [Example 127, 1-(4-((1R,5S)-3,8-diazabicyclo[3.2.1]octan-3-yl)-7-(8-chloronaphthalen-1-yl)-8-fluoropyrido[4,3-d]pyrimidin-2-yl)-N,N,3-trimethylazetidin-3-amine] | 0.251 | 0.864
10 | CC(C)Cn1ccnc1CCOc1nc(N2C[C@H]3CC[C@@H](C2)N3)c2cnc(-c3cc(O)cc4ccccc34)c(F)c2n1 [Example 85, 4-(4-((1R,5S)-3,8-diazabicyclo[3.2.1]octan-3-yl)-8-fluoro-2-(2-(1-isobutyl-1H-imidazol-2-yl)ethoxy)pyrido[4,3-d]pyrimidin-7-yl)naphthalen-2-ol] | 0.454 | 0.148
11 | CCCOc1nc(N2C[C@H]3CC[C@@H](C2)N3)c2cnc(-c3cc(O)cc4ccccc34)c(F)c2n1 [Example 47, 4-(4-((1R,5S)-3,8-diazabicyclo[3.2.1]octan-3-yl)-8-fluoro-2-propoxypyrido[4,3-d]pyrimidin-7-yl)naphthalen-2-ol] | 0.265 | 0.51
12 | CN(C)C1CN(c2nc(N3C[C@H]4CC[C@@H](C3)N4)c3cnc(-c4cccc5cccc(Cl)c45)c(F)c3n2)C1 [Example 122, 1-(4-((1R,5S)-3,8-diazabicyclo[3.2.1]octan-3-yl)-7-(8-chloronaphthalen-1-yl)-8-fluoropyrido[4,3-d]pyrimidin-2-yl)-N,N-dimethylazetidin-3-amine] | 3.27 | 3.42
13 | CC(C)n1ccnc1CCOc1nc(N2C[C@H]3CC[C@@H](C2)N3)c2cnc(-c3cc(O)cc4ccccc34)c(F)c2n1 [Example 91, 4-(4-((1R,5S)-3,8-diazabicyclo[3.2.1]octan-3-yl)-8-fluoro-2-(2-(1-isopropyl-1H-imidazol-2-yl)ethoxy)pyrido[4,3-d]pyrimidin-7-yl)naphthalen-2-ol] | 0.0327 | 0.0259
14 | Fc1c(-c2cccc3cccc(Cl)c23)ncc2c(N3CC4CCC(C3)N4)nc(OC[C@@]34CCCN3C[C@H](F)C4)nc12 (stereo in doubt) [Example 134, 4-((1R,5S)-3,8-diazabicyclo[3.2.1]octan-3-yl)-7-(8-chloronaphthalen-1-yl)-8-fluoro-2-((2-fluorotetrahydro-1H-pyrrolizin-7a(5H)-yl)methoxy)pyrido[4,3-d]pyrimidine] | 0.0037 | 0.0069
15 | Fc1ccc2cccc(-c3ncc4c(N5C[C@H]6CC[C@@H](C5)N6)nc(OCCc5cccnc5)nc4c3F)c2c1 [Example 90, 4-((1R,5S)-3,8-diazabicyclo[3.2.1]octan-3-yl)-8-fluoro-7-(7-fluoronaphthalen-1-yl)-2-(2-(pyridin-3-yl)ethoxy)pyrido[4,3-d]pyrimidine] | 4.49 | 7.81
16 | OCC(COc1nc(N2C[C@H]3CC[C@@H](C2)N3)c2cnc(-c3cccc4cccc(Cl)c34)c(F)c2n1)c1cccnc1 (stereo partly drawn) [Example 59, 3-((4-((1R,5S)-3,8-diazabicyclo[3.2.1]octan-3-yl)-7-(8-chloronaphthalen-1-yl)-8-fluoropyrido[4,3-d]pyrimidin-2-yl)oxy)-2-(pyridin-3-yl)propan-1-ol] | 0.946 | 1.12
17 | Oc1cc(-c2ncc3c(N4C[C@H]5CC[C@@H](C4)N5)nc(N4CCCC4)nc3c2F)c2ccccc2c1 [Example 118, 4-(4-((1R,5S)-3,8-diazabicyclo[3.2.1]octan-3-yl)-8-fluoro-2-(pyrrolidin-1-yl)pyrido[4,3-d]pyrimidin-7-yl)naphthalen-2-ol 2,2,2-trifluoroacetate] | 0.477 | 1.06
18 | CN1CCC[C@H]1COc1nc(N2C[C@H]3CC[C@@H](C2)N3)c2cnc(-c3cccc4cccc(CCC#N)c34)c(F)c2n1 [Example 117, 3-(8-(4-((1R,5S)-3,8-diazabicyclo[3.2.1]octan-3-yl)-8-fluoro-2-(((S)-1-methylpyrrolidin-2-yl)methoxy)pyrido[4,3-d]pyrimidin-7-yl)naphthalen-1-yl)propanenitrile bis(2,2,2-trifluoroacetate)] | 0.732 | 1
19 | Cc1cccc(CCOc2nc(N3C[C@H]4CC[C@@H](C3)N4)c3cnc(-c4cc(O)cc5ccccc45)c(F)c3n2)n1 [Example 87, 4-(4-((1R,5S)-3,8-diazabicyclo[3.2.1]octan-3-yl)-8-fluoro-2-(2-(6-methylpyridin-2-yl)ethoxy)pyrido[4,3-d]pyrimidin-7-yl)naphthalen-2-ol] | 0.536 | 0.196
20 | CN1CC(COc2nc(N3C[C@H]4CC[C@@H](C3)N4)c3cnc(-c4cccc5cccc(Cl)c45)c(F)c3n2)CC1=O (stereo partly drawn) [Example 131, 4-(((4-((1R,5S)-3,8-diazabicyclo[3.2.1]octan-3-yl)-7-(8-chloronaphthalen-1-yl)-8-fluoropyrido[4,3-d]pyrimidin-2-yl)oxy)methyl)-1-methylpyrrolidin-2-one] | 0.424 | 1.55
21 | Cc1cccnc1CCOc1nc(N2C[C@H]3CC[C@@H](C2)N3)c2cnc(-c3cc(O)cc4ccccc34)c(F)c2n1 [Example 6, 4-(4-((1R,5S)-3,8-diazabicyclo[3.2.1]octan-3-yl)-8-fluoro-2-(2-(3-methylpyridin-2-yl)ethoxy)pyrido[4,3-d]pyrimidin-7-yl)naphthalen-2-ol] | 0.434 | 0.442
